± gives the expanded uncertainty stated by the source.
Test: molar heat capacity at constant pressure
Details: 101.33 kPa, Small (less than 1 g) adiabatic calorimetry

COc1ccc(C2(c3ccc(OC)c(C)c3)OC(=O)c3ccccc32)cc1C [3,3-bis(4-methoxy-3-methylphenyl)-1(3H)-isobenzofuranone]
Details | molar heat capacity at constant pressure [J/K/mol]
5.802 K, Glass | 2.967 ± 0.084
6.011 K, Crystal | 1.658 ± 0.053
6.232 K, Glass | 3.526 ± 0.096
6.486 K, Crystal | 2.176 ± 0.065
6.689 K, Glass | 4.234 ± 0.11
6.977 K, Crystal | 2.797 ± 0.078
7.179 K, Glass | 5.003 ± 0.13
7.498 K, Crystal | 3.461 ± 0.093
7.715 K, Glass | 5.872 ± 0.15
8.061 K, Crystal | 4.249 ± 0.11
8.282 K, Glass | 6.885 ± 0.17
8.65 K, Crystal | 5.21 ± 0.13
8.874 K, Glass | 8.044 ± 0.2
9.274 K, Crystal | 6.207 ± 0.15
9.483 K, Glass | 9.187 ± 0.22
9.939 K, Crystal | 7.418 ± 0.13
10.1 K, Glass | 10.44 ± 0.17
10.63 K, Crystal | 8.764 ± 0.15
10.73 K, Glass | 11.74 ± 0.19
11.34 K, Crystal | 10.21 ± 0.17
11.35 K, Glass | 13.13 ± 0.21
11.98 K, Glass | 14.45 ± 0.23
12.03 K, Crystal | 11.58 ± 0.18
12.62 K, Glass | 15.86 ± 0.24
12.71 K, Crystal | 13.08 ± 0.2
13.28 K, Glass | 17.41 ± 0.27
13.41 K, Crystal | 14.58 ± 0.23
13.96 K, Glass | 18.93 ± 0.28
14.13 K, Crystal | 16.23 ± 0.25
14.66 K, Glass | 20.58 ± 0.3
14.89 K, Crystal | 18.08 ± 0.27
15.39 K, Glass | 22.28 ± 0.33
15.68 K, Crystal | 19.91 ± 0.29
16.15 K, Glass | 24.12 ± 0.35
16.49 K, Crystal | 21.8 ± 0.31
16.94 K, Glass | 25.94 ± 0.37
17.04 K, Crystal | 22.93 ± 0.33
17.66 K, Glass | 27.62 ± 0.39
17.91 K, Crystal | 25.25 ± 0.35
18.49 K, Glass | 29.63 ± 0.41
18.78 K, Crystal | 27.27 ± 0.38
19.34 K, Glass | 31.77 ± 0.43
19.67 K, Crystal | 29.41 ± 0.4
20.21 K, Glass | 33.84 ± 0.45
20.58 K, Crystal | 31.37 ± 0.42
21.11 K, Glass | 35.96 ± 0.48
21.5 K, Crystal | 33.68 ± 0.44
22.03 K, Glass | 38.09 ± 0.5
22.45 K, Crystal | 35.73 ± 0.46
23 K, Glass | 40.41 ± 0.52
23.44 K, Crystal | 38.11 ± 0.49
24.02 K, Glass | 42.79 ± 0.54
24.48 K, Crystal | 40.68 ± 0.51
25.08 K, Glass | 45.25 ± 0.56
25.54 K, Crystal | 43.24 ± 0.54
26.16 K, Glass | 47.65 ± 0.58
26.63 K, Crystal | 45.57 ± 0.56
27.26 K, Glass | 50.09 ± 0.6
27.74 K, Crystal | 48.13 ± 0.58
28.38 K, Glass | 52.99 ± 0.63
28.86 K, Crystal | 51.61 ± 0.61
29.5 K, Glass | 56.69 ± 0.66
29.99 K, Crystal | 54.09 ± 0.35
30.63 K, Glass | 57.45 ± 0.3
31.12 K, Crystal | 55.63 ± 0.29
31.76 K, Glass | 60.08 ± 0.31
32.25 K, Crystal | 58.38 ± 0.31
32.9 K, Glass | 63.09 ± 0.33
33.39 K, Crystal | 61.18 ± 0.32
34.06 K, Glass | 65.62 ± 0.34
34.56 K, Crystal | 63.78 ± 0.33
35.25 K, Glass | 68.43 ± 0.34
35.74 K, Crystal | 66.5 ± 0.34
36.45 K, Glass | 70.84 ± 0.35
36.95 K, Crystal | 69.15 ± 0.35
37.67 K, Glass | 73.54 ± 0.36
38.17 K, Crystal | 71.7 ± 0.36
38.9 K, Glass | 75.9 ± 0.37
39.4 K, Crystal | 74.01 ± 0.37
40.15 K, Glass | 78.39 ± 0.38
40.66 K, Crystal | 76.39 ± 0.38
41.41 K, Glass | 80.76 ± 0.39
41.94 K, Crystal | 79 ± 0.39
42.68 K, Glass | 83.53 ± 0.4
43.23 K, Crystal | 81.44 ± 0.4
43.93 K, Glass | 85.97 ± 0.41
44.51 K, Crystal | 83.92 ± 0.41
45.19 K, Glass | 88.07 ± 0.42
45.78 K, Crystal | 86.54 ± 0.42
46.45 K, Glass | 90.22 ± 0.43
47.06 K, Crystal | 89.06 ± 0.43
47.71 K, Glass | 93.04 ± 0.44
48.33 K, Crystal | 91.12 ± 0.43
48.97 K, Glass | 95.25 ± 0.45
49.6 K, Crystal | 94.6 ± 0.45
50.23 K, Glass | 98.01 ± 0.46
50.87 K, Crystal | 97.15 ± 0.46
51.48 K, Glass | 100.37 ± 0.47
52.14 K, Crystal | 99.73 ± 0.47
52.74 K, Glass | 103.27 ± 0.48
53.41 K, Crystal | 102.49 ± 0.48
54 K, Glass | 105.75 ± 0.49
54.68 K, Crystal | 105 ± 0.49
55.27 K, Glass | 108.28 ± 0.5
55.95 K, Crystal | 107.6 ± 0.5
56.53 K, Glass | 110.76 ± 0.51
57.22 K, Crystal | 109.68 ± 0.51
57.79 K, Glass | 113.22 ± 0.52
58.5 K, Crystal | 112.22 ± 0.52
59.06 K, Glass | 115.64 ± 0.53
59.77 K, Crystal | 114.59 ± 0.53
60.33 K, Glass | 117.82 ± 0.54
61.05 K, Crystal | 116.87 ± 0.54
61.6 K, Glass | 120.17 ± 0.55
62.33 K, Crystal | 119.39 ± 0.55
62.87 K, Glass | 122.44 ± 0.56
63.61 K, Crystal | 121.85 ± 0.56
64.15 K, Glass | 124.78 ± 0.57
64.89 K, Crystal | 123.86 ± 0.57
65.43 K, Glass | 126.76 ± 0.58
66.18 K, Crystal | 125.9 ± 0.57
66.72 K, Glass | 129.06 ± 0.59
67.47 K, Crystal | 128.08 ± 0.58
68.01 K, Glass | 131.4 ± 0.6
68.77 K, Crystal | 130.54 ± 0.59
69.3 K, Glass | 133.63 ± 0.61
70.07 K, Crystal | 132.99 ± 0.6
70.6 K, Glass | 136.05 ± 0.62
71.38 K, Crystal | 135.25 ± 0.61
71.91 K, Glass | 138.21 ± 0.62
72.69 K, Crystal | 137.49 ± 0.62
73.22 K, Glass | 140.28 ± 0.63
74.01 K, Crystal | 139.48 ± 0.63
74.59 K, Glass | 142.77 ± 0.64
75.33 K, Crystal | 141.75 ± 0.64
76.03 K, Glass | 145.08 ± 0.65
76.66 K, Crystal | 144.1 ± 0.65
77.47 K, Glass | 147.57 ± 0.66
77.99 K, Crystal | 146.27 ± 0.66
78.91 K, Glass | 149.7 ± 0.67
79.33 K, Crystal | 148.82 ± 0.67
80.36 K, Glass | 152.24 ± 0.68
80.67 K, Crystal | 150.88 ± 0.68
81.81 K, Glass | 154.61 ± 0.69
82.09 K, Crystal | 152.82 ± 0.68
83.27 K, Glass | 156.85 ± 0.7
83.57 K, Crystal | 155.34 ± 0.69
84.73 K, Glass | 159.35 ± 0.71
85.06 K, Crystal | 157.59 ± 0.7
86.19 K, Glass | 161.67 ± 0.72
86.55 K, Crystal | 160.21 ± 0.71
87.66 K, Glass | 164.03 ± 0.73
88.04 K, Crystal | 162.51 ± 0.72
89.14 K, Glass | 166.13 ± 0.74
89.54 K, Crystal | 164.72 ± 0.73
90.62 K, Glass | 168.74 ± 0.71
91.05 K, Crystal | 167.41 ± 0.7
92.11 K, Glass | 171.18 ± 0.71
92.56 K, Crystal | 169.71 ± 0.71
93.61 K, Glass | 173.56 ± 0.72
94.08 K, Crystal | 172.05 ± 0.72
95.11 K, Glass | 176.28 ± 0.73
95.6 K, Crystal | 174.26 ± 0.72
96.62 K, Glass | 178.27 ± 0.74
97.14 K, Crystal | 176.64 ± 0.73
98.14 K, Glass | 180.03 ± 0.74
98.67 K, Crystal | 178.97 ± 0.74
99.67 K, Glass | 182.72 ± 0.75
100.22 K, Crystal | 181.39 ± 0.75
101.2 K, Glass | 185 ± 0.76
101.77 K, Crystal | 183.97 ± 0.76
102.74 K, Glass | 186.83 ± 0.77
103.33 K, Crystal | 186.52 ± 0.77
104.29 K, Glass | 189.85 ± 0.78
104.9 K, Crystal | 188.69 ± 0.77
105.85 K, Glass | 192.15 ± 0.79
106.48 K, Crystal | 190.79 ± 0.78
107.42 K, Glass | 194.15 ± 0.79
108.07 K, Crystal | 193.1 ± 0.79
109 K, Glass | 196.63 ± 0.8
109.72 K, Crystal | 195.77 ± 0.8
110.58 K, Glass | 199.21 ± 0.81
111.45 K, Crystal | 198.35 ± 0.81
112.18 K, Glass | 201.62 ± 0.82
113.19 K, Crystal | 200.89 ± 0.82
113.78 K, Glass | 204.03 ± 0.83
114.95 K, Crystal | 203.39 ± 0.82
115.4 K, Glass | 206.27 ± 0.83
116.73 K, Crystal | 205.7 ± 0.83
117.1 K, Glass | 208.63 ± 0.84
118.52 K, Crystal | 209.32 ± 0.85
118.89 K, Glass | 211.16 ± 0.85
120.34 K, Crystal | 211.71 ± 0.85
120.69 K, Glass | 213.89 ± 0.86
